From patent publication US12528774B2, “Thiosemicarbazone compounds and uses thereof” (The Regents of the University of California, priority 2019, dated 2026)

Key:
[1] = molecular target: dihydroorotate dehydrogenase (DHODH) (Homo sapiens, UniProt Q02127); assay: Recombinant DHODH activity assay; type: biochemical; conditions: HCT-13 100 nM, 1 μM; Cu(II) 20 μM
Procedure: FIG. 5A: rescue of HCT-13 (25 nM)-induced cell death by Uridine (rU) (200 μM), Pyruvate (1 mM), or both following 48h of treatment. FIG. 5B: measurement of DHODH activity using recombinant DHODH assay following treatment with indicated perturbations for 2 min. DHODH inhibitor used: NITD-982-1 μM; HCT-13-100 nM, 1 μM, (100 nM data shown); Cu(II)—20 μM. (mean±SD, n=2, Student t-test, * P<0.05).
DHODH activity: Recombinant protein was incubated in an aqueous solution (total volume, 1.0 mL) containing 500 μM DHO (Sigma, D1728), 200 mM K2CO3-HCl (pH 8.0), 0.2% triton x-100, and 100 μM coenzyme Q10 (Sigma, C9538) at 37° C. for 0, 15, 30, 45, or 60 min. An aliquot (100 μL) of the mixture of enzyme reaction mixture or cell/tissue lysate was mixed with 100 μL of 0, 0.5, or 1.0 μM orotic acid, 50 μL of H2O, 250 μL of 4.0 mM 4-TFMBAO (Sigma, 422231), 250 μL of 8.0 mM K3[Fe(CN)6] (Sigma, 244023), and 250 μL of 80 mM K2CO3 (Sigma, P5833) and then heated at 80° C. for 4.0 min. The reaction was stopped by cooling in an ice-water bath and the absorbance was measured with a spectrofluorometer (FP-6300 Jasco, Tokyo, Japan): excitation and emission wavelengths were 340 nm and 460 nm, respectively.

[2] = tested on: p185BCR-ABL Arf−/− pre-B-ALL cells; assay: In vivo efficacy, systemic p185 pre-B ALL model; parameters: species or system mouse; conditions: 1 mg/kg q.d. 8 days; fourteen days after treatment initiation
Text: FIG. 9A: dose and schedule for the efficacy study in p185 pre-B-ALL mice. FIGS. 9B-9D: bioluminescence images and quantification of whole body radiance of mice treated with HCT-16 (n=5) or vehicle control (n=10). FIG. 9E: dose and schedule for the efficacy study in MV4-11 AML bearing mice. FIGS. 9F-9H: bioluminescence images and quantification of whole body radiance of mice treated with HCT-16 (n=5) or vehicle control (n=5). (mean±SD, n=2, student's paired t-test, * P<0.05; ** P<0.01; *** P<0.001). q.d.=once/day. For purposes of the disclosure, Cu(HCT-13) is the same as compound HCT-16 (i.e., copper complexed with HCT-13).
The in vivo efficacy and tolerability of HCT-13 was investigated. […] Both p185 and MV4-11 cell lines were engineered to express luciferase to monitor the systemic leukemic burden by bioluminescence imaging (BLI). (Boulos et al, Blood 2011, 117(13):3585-3595; Rahmani et al, Cancer Res. 2018, 78(11):3075-3086). To bypass the need for systemic copper supplementation, a one-to-one complex of copper and HCT-13 (i.e., HCT-16) was prepared for in vivo administration according to reported procedures for similar compounds and characterized by UV-HPLC and HR-MS. […]
In vivo leukemia models and treatment regimens. […] The leukemic burden was monitored using bioluminescence imaging. […]

MIAPACA2 cells = assay: Proliferation assay (CellTiter-Glo, 72 h) in MIAPACA2 cells; type: cell-based, human

Sequence of dihydroorotate dehydrogenase (DHODH) (Q02127 whole entry, species assumed): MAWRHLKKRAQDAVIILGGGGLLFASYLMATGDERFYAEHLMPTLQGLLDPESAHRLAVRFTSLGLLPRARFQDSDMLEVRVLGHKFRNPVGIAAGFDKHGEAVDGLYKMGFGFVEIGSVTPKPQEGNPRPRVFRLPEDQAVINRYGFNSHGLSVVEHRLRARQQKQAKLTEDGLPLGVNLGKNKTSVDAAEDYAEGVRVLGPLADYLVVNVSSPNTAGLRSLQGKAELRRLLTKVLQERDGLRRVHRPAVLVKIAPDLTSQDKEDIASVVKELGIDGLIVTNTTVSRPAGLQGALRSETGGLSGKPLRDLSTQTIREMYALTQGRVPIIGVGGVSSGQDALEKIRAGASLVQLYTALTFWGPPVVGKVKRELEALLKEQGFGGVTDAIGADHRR

With `CN(C)C(=S)N/N=C/c1nccc2cc(F)ccc12` (mixture of isomers) [HCT13, (E)-2-((6-Fluoroisoquinolin-1-yl)methylene)-N,N-dimethylhydrazine-1-carbothioamide and (Z)-2-((6-Fluoroisoquinolin-1-yl)methylene)-N,N-dimethylhydrazine-1-carbothioamide] the “affinity for DHODH” value [1] was “did not demonstrate affinity”, the “systemic disease burden versus control group (bioluminescence)” value [2] was “significantly lower systemic disease burden” and the “antiproliferative potency with Fe(II) supplementation” value (MIAPACA2 cells; Fe(II) 20 μM) was “diminished but still active”. The “antiproliferative potency with Zn(II) supplementation” value (MIAPACA2 cells; Zn(II) 20 μM) was “largely inactive”.
